Molecules are shown by their SMILES.

Experimental findings from patent US7053194B2, “Compositions and methods for p53-mediated repression of gene expression” (Fox Chase Cancer Center, priority 1999, dated 2006) are described below.

Holding throughout (format): cell-based, human
In assay [1] the test system is A2780 cells. The assay can be described thus: Northern analysis of stathmin mRNA after adriamycin treatment. The following applies: A2780, adriamycin, 12 hours, data not shown. As to the method:
(§1) Sub-confluent cultures of MCF 7 and A2780 cells were treated with 100 nM trichostatin A (TSA, Sigma)for 2 hours, followed by incubation with 0.5 ug/ml adriamycin (doxorubicin, Sigma) for the indicated timepoints. Va15 cells grown at 39 degrees were treated with 100 nM TSA for two hours, followed by temperature shift to 32 degrees for 12 hours. p53 induction was monitored by western analysis of 100 ug protein as described (Murphy et al., Genes & Devel. 10:2971–2980, 1996), using 0.1ug/ml DO-1 (Ab-6, Calbiochem) or 421 (Ab-1, Calbiochem). MDM2 induction was monitored using the monoclonal antibody 2A10, kindly provided by Arnold Levine (Rockefeller University). For UV treatments, cells were irradiated with 4 J/m2 of UV-C with a Spectroline X series ultraviolet lamp, and output was monitored with a traceable UV light meter (Fisher Scientific). For ALLN treatment, MCF-7 cells were treated with 50 uM ALLN (calpain I inhibitor, Sigma) made in DMSO (dimethyl sulfoxide, Sigma) or with DMSO alone for 2 hours prior to harvesting.
(§2) Total RNA was isolated from cells using CsC1 purification (Murphy et al., Genes & Devel. 10:2971–2980, 1996) or using Trizol, as per the manufacturer (Gibco/BRL). Northern analyses were performed as described (Murphy et al., Genes & Devel. 10:2971–2980, 1996). Probes for Northerns were radio labeled using random primers (Prime-It-II, Stratagene) and α^32P dCTP (NEN). Autoradiographs were quantitated using NIH image software. The average values from three independent experiments were plotted onto bar graphs following normalization to GAPDH.
(§3) To extend these observations, the human tumor derived cell lines MCF7 (breast carcinoma)and A2780 (ovarian carcinoma) were analyzed following treatment with adriamycin to activate the endogenous, wild type p53 protein. Because of difficulties detecting human Map4 message, we analyzed the mRNA levels of stathmin (also called oncoprotein 18). We recently identified stathmin as a p53-repressed gene. A time course of treatment of MCF-7 cells with the DNA-damaging agent adriamycin (doxorubicin, DOX) results in approximately 30% reduction of stathmin RNA levels after 8 hours and 75% reduction after 24 hours. We chose to focus further on the 12 hour timepoint of adriamycin treatment, where 50% repression of stathmin was evident, in order to limit the toxicity sometimes associated with TSA (Yoshida et al., J Biol Chem 265:17174–17179, 1990). […] The results of three independent experiments indicate that the repression of stathmin expression evident after 12 hours of adriamycin treatment is completely abrogated by incubation with TSA. In contrast, neither the post-translational stabilization of p53 by adriamycin (DOX) nor the induction of the p53 response genes mdm2 and p21/waf1 were affected by TSA. […] We have performed identical experiments in A2780 cells (ovarian carcinoma, wt p53).

The test system of assay [2] is MCF-7 cells. The assay is described as above. The conditions noted are these: MCF-7, adriamycin 0.5 ug/ml. As to the method: as §1, §2, §3
Assay [3] relates to MCF-7 cells. As to the kind of experiment: Immunoprecipitation-western analysis of p53 and p53-mSin3a complexes. As to the method:
as §1
Sub-confluent cultures of cells were harvested and lysed in NP-40 buffer supplemented with protease inhibitors (1 mM PMSF, 10 ug/ml pepstatin A, 10 ug/ml aprotinin, and 5ug/ml leupeptin). Protein concentrations were determined by the method of Bradford (BioRad). Equal ug amounts of protein (between 2.0 and 3.0 mg) were immunoprecipitated with 1 ug of each antibody, except for Va15 immunoprecipitations, which used 1000 ug protein, as described (Murphy et al., Genes & Devel. 10:2971–2980, 1996). For p300, antibody N15 (Santa Cruz Biotechnology) and AB-1 (Calbiochem) yielded similar results. Each IP was washed twice in NP-40 buffer (Wu, et al., Genes & Devel. 7:1126–1132, 1993), followed by 2 washes in RIPA buffer (50 mM Tris pH 7.4/150 mM NaCl/1% Triton X 100/0.1% SDSI 1% Na deoxycholate). Immunoprecipitations were run on 7.5–10% SDS-PAGE gels and transferred overnight onto Immuno-Blot PVDF membrane (BioRad). […]
These complexes persisted under stringent washing conditions (RIPA buffer washes, see Materials and Methods), and were not present using control antisera (rabbit IgG, lane 1). […] We next analyzed the p53-mSin3a interaction following post-translational stabilization of p53 mediated by DNA damaging agents. […]
We next analyzed the time-course of the p53-mSin3a interaction following exposure of cells to the DNA damaging agent adriamycin (doxorubicin). Both p53-mSin3a and p53 p300 complexes were monitored by IP-western analysis in a time course following adriamycin treatment of MCF-7 cells. As a control, p53 was immunoprecipitated using polyclonal antisera generated against full-length p53 (Santa Cruz Biotechnology). p53 levels were also assessed at each time point by western analyses (data not shown). […]

`COc1cccc2c1C(=O)c1c(O)c3c(c(O)c1C2=O)C[C@@](O)(C(=O)CO)C[C@@H]3O[C@H]1C[C@H](N)[C@H](O)[C@H](C)O1` [adriamycin, doxorubicin]: the “repression of stathmin expression” value in assay [1] is reported as “approximately 50%”. For the same compound, the results for the “reduction of stathmin RNA levels” value in assay [2] (8 hours) and in assay [2] (24 hours) were “approximately 30%” and approximately 75%, respectively. Further, the repression of stathmin in assay [2] (12 hours) was determined as 50%. Further, in assay [3] (MCF-7, adriamycin, four and eight hours of treatment), the “total p53 protein” value is recorded as “significant increase in total p53 protein”. Also, the “amount of p53 in mSin3a complexes, increase” value in assay [3] (MCF-7 treated with doxorubicin) is given as “approximately five-fold greater”.
